SMILES	melting point [°C]
CNC(=O)c1nnn(Cc2ccccc2)c1N	151 to 153
CCCCNC(=O)NS(=O)(=O)Cc1c(C(=O)OC)cccc1S(=O)(=O)N(C)C	118 to 134
O=[N+]([O-])C1=C2N(Cc3cnc(Cl)s3)CCN2C2CCC1O2 (centres undefined)	152
COc1ccc(-c2ccc(N)cc2)cc1OC1CCCC1	94 to 95
Cc1cc(N2C(=O)N(CCCCCN3C(=O)N(c4ccc([N+](=O)[O-])c(C)c4)C(=O)C3(C)C)C(C)(C)C2=O)ccc1[N+](=O)[O-]	130 to 131
COC(=O)c1cc2c(nc1C)C(CO)CCCC2 (centres undefined)	55 to 56
COc1ccc(N)c(C(=O)CS(=O)(=O)N(C)C)c1	198 to 200
Cn1cc(C#N)n(-c2ccc(Cl)cc2)c1=O	149 to 151
CCCCOC1C=CC(=O)N1S(=O)(=O)c1cccc(C(F)(F)F)c1 (centres undefined)	42 to 43
CCOc1ccnc2[nH]ccc12	176 to 178
Cc1cc(C#N)cc(-c2ccc3c(c2)C(C)(C)OC(=O)N3)c1	256 to 258
CC(CO)c1ccc(-c2ccccc2F)c(F)c1 (centres undefined)	80 to 82.5
NOCc1cn(C(c2ccccc2)(c2ccccc2)c2ccccc2)cn1	138 to 139
c1nc(NCCN2CCOCC2)c2sc3nc(N4CCCC4)c4c(c3c2n1)CCOC4	189 to 191
CC(C)(CCOc1ccc(Cl)cc1Cl)C(=O)Cn1cncn1	62
CC(=O)n1cc(/C=C2\N=C(c3ccccc3)OC2=O)c2cc(Cl)cnc21	242
CN(C)C1(c2ccccc2)CCC(O)(c2cc3ccccc3n2S(=O)(=O)c2ccccc2)CC1 (centres undefined)	173 to 176
CCCCCCCCCC(=O)Nc1cc(NC(=O)CCCCCCCCC)cc(N(CC(=O)OCc2ccccc2)CC(=O)OCc2ccccc2)c1	127 to 129
CCOC(OCC)N1CCNC1=N[N+](=O)[O-]	100 to 102
CCCc1cc(CCC)n2nc(N3CCN(C(=O)OCC)CC3)nc2n1	130 to 132

SMILES	melting point [°C]
CCS(=O)c1ccc(-c2coc3ccc(-c4nnc(C)o4)cc23)cc1 (centres undefined)	156 to 157
COc1ccc2c(c1)c(CC(=O)OCC(=O)NCCO[N+](=O)[O-])c(C)n2C(=O)c1ccc(Cl)cc1	128 to 129
Cc1cc(Br)c(C)cc1Cl	60 to 64
O=c1cc(-c2ccncc2)nc2[nH]c3ccccc3n12	300 to 302
c1ccc2c(c1)c1ccccc1n2-c1ccc2c(c1)Sc1ccc(-n3c4ccccc4c4ccccc43)cc1S2	350
O=C(O)c1cn(C2CC2)c2c(F)c(N3CCCC(n4ccnn4)C3)c(F)cc2c1=O (centres undefined)	239 to 240
OCc1cc(-c2ccc(Cl)cc2)on1	93 to 95
CC(C)NC(=O)c1cnc(N2CCC(N3C(=O)COc4ccccc43)CC2)c(Cl)c1	85 to 88
N#CCc1c[nH]c2ccc(CCS(N)(=O)=O)cc12	109 to 111
Nc1ccc(-n2cnnc2)cc1C(F)(F)F	196 to 198
N#CNc1nc2c(s1)Cc1cc(Cl)ccc1-2	225
O=S(=O)(c1ccccc1)c1ccc(N2CCNCC2)cn1	126 to 127
CSc1ncc2cc(Cc3ccccc3)oc2n1	69 to 72.2
CN1CCC(Oc2cnccn2)(c2ccccc2)CC1	115 to 116
COC(=O)NC(=N)N(C(=O)OC)c1c(Cc2ccccc2)c[nH]c1C(=O)OC	158 to 160
Nc1nc2c(c(N3CCN(Cc4ccccc4)CC3)n1)SCCC2	124 to 127
O=S(=O)(Oc1cccc(O)c1)c1ccc(Cl)c(Cl)c1	107 to 110
Cc1nc[nH]c1CSCCNC(=S)S	127 to 129
CCCc1nc(C)cn1-c1cc(F)ccc1[N+](=O)[O-]	36 to 39
C[C@]1(CN2CCN(C(=O)COc3ccc(Cl)cc3)CC2)Cn2cc([N+](=O)[O-])nc2O1	179 to 180

SMILES	melting point [°C]
COC(=O)N(CC(=O)O)C(=O)c1c(Cl)ccc2c(C(F)(F)F)c(OC)ccc12	162 to 165
O=c1ccn(-c2ccc(-c3ccc(=O)[nH]n3)cc2)cc1	339 to 341
CCOP(=O)(OCC)C(O)c1cccc([N+](=O)[O-])c1 (centres undefined)	93 to 95
COC(=O)C1CNCCN1C(=O)/C=C/c1ccc(Sc2ccc3c(c2)OCCO3)c(C(F)(F)F)c1 (centres undefined)	70 to 72
NC(=O)C(CCC(=O)O)N1C(=O)c2cccc(NCc3ccco3)c2C1=O (centres undefined)	120 to 122
Nc1nc(N)c(-c2cccc3ccccc23)c(C(F)(F)F)n1	224 to 226
CC(C)(C)Sc1c(-c2ccc(S(C)(=O)=O)cc2)cnn(CC(F)(F)F)c1=O	186 to 189
NC(Cc1ccccc1F)=NO	85 to 87
CSc1ccc(S(=O)(=O)N2CCCC2=O)cc1	123 to 125
CC(=O)NCC1CN(c2c(F)c(N)c3c(=O)c(C(=O)O)cn(C4CC4)c3c2F)CCO1 (centres undefined)	228 to 229
COC(=O)c1cc([N+](=O)[O-])c(Cl)c(S(=O)(=O)Cl)c1	92 to 94
CCCc1c(OCCCCCCc2ccc(OC)c(OC)c2Cl)ccc(C(=O)O)c1O	107 to 108
NC1CCNC(c2cnccn2)C1 (centres undefined)	158 to 160
Cc1cc(NC(=O)Cc2cccs2)nc(C)c1Br	192
O=C(O)c1cc(Br)nn1-c1ncccc1Cl	200 to 201
C=C1CC2C(CCC3(C)C2CCC3(O)C(=O)COC(C)=O)C2(C)CCC(=O)C=C12 (centres undefined)	194 to 196
CCCC1=Cc2c3c(c(C)c(C)c2C1=O)OC(C(=O)O)C3 (centres undefined)	212
CC(=O)OC1CN(c2c(F)cc3c(=O)c(C(=O)O)cn(C4CC4)c3c2F)C1	259 to 262
CCCCc1nc(CO)c(Br)[nH]1	160

The remaining lines, values ahead:

melting point [°C]	SMILES
159	O=C(NCCO)c1cc(-c2ccnc(Nc3cccc(OC(F)(F)C(F)F)c3)n2)ccn1
195 to 197	O=c1nc(-c2cccc(-c3ccccc3)n2)sc2ccccc12
66 to 67	CCCCCCCCc1ccc(OCC(=O)Cn2ncc3ccccc32)cc1
137 to 138	COc1cc(COc2ncccc2C#N)ccc1OCc1nc(-c2ccco2)oc1C
180	CC(=O)Oc1cccc2c1C(=O)c1c(OC(C)=O)cccc1C2C(=O)C1CCCC1
150	CC(=O)OC1CSC(Sc2ccc(-c3ccc(C#N)cc3)cc2)C(OC(C)=O)C1OC(C)=O (centres undefined)
138 to 139	COc1ccc(-c2cc(=O)n(Cc3cc(OC)c(OC)c(OC)c3)nc2-c2ccc(OC)cc2)cc1
160 to 162	CCCCn1c(=O)c(NC(=O)Nc2cc(Cc3ncc[nH]3)ccc2C(C)(C)C)c(-c2cccc(O)c2)c2cccnc21
155 to 156	Cc1ccc(S(=O)(=O)NCc2ccccc2CC(=O)O)cc1
165 to 169	CN(C)CC1CCc2cc(OCc3ccc(NC(=O)c4cc5ccccc5s4)cc3)ccc2C1 (centres undefined)
154 to 155	Cc1oc(-c2cc3ccccc3s2)nc1COc1ccc(CCCC2OC(=O)NC2=O)cc1 (centres undefined)
224 to 225	CC(=O)c1ccc(Cn2ccc3c4c(N)nc(N)nc4ccc32)cc1
46 to 47	NC(=O)CNC(=O)c1cccc(-c2cccc3cc(Cc4cc(F)cc(Cl)c4)sc23)c1F
198 to 200	Cc1ccccc1C(=O)Nc1ccc(C(=O)N2CCCC(N)c3ccccc32)cc1 (centres undefined)
145 to 147	CS(=O)(=O)NCCCCC(=O)Nc1nc2c(s1)CCCc1ccc(F)cc1-2
109 to 110	O=C1Cc2ccc(-c3ccccc3)cc2O1
224 to 226	Oc1ccc(Oc2cccc(-c3nnc(Nc4ccc(Cl)c(Cl)c4)s3)c2)cc1
135 to 137	CCn1nc(C(=O)NC2CN(C)CCN(Cc3ccccc3)C2)c2ccccc21 (centres undefined)
132 to 135	CC(COc1ccc2c(c1)CCCC2=O)n1ccnc1 (centres undefined)
138 to 140	NS(=O)(=O)c1ccc(N2N=C(C(F)(F)F)CC2c2c[nH]c3ccccc23)cc1 (centres undefined)

melting point [°C]	SMILES
206 to 207	OCc1cc2cc(-c3ccc4ccc(Cl)cc4n3)ccc2o1
149 to 150	O=C(Nc1nnc(C(F)(F)F)o1)C(c1ccccc1)c1ccccc1
194 to 195	Cc1oc(-c2ccccc2)nc1COc1ccc(CN(O)C(=O)NO)cc1
78 to 79.5	c1ccc(CN2CC3OC(C4OCCO4)(C2)c2ccccc23)cc1 (centres undefined)
225 to 233	O=C(Nc1ccccc1)NC(Cc1ccccc1)C(=O)Nc1c(F)cc(F)cc1F (centres undefined)
112 to 114	CN(C)C(=O)Nc1ccc(SCc2nc(Cl)ccc2Cl)cc1
100	CN(C)S(=O)(=O)c1cnc(NC(=O)[C@H](CC2CCCC2)c2ccc(S(C)(=O)=O)c(Cl)c2)cn1
206 to 208	COC(=O)c1ccc(Cn2nnc3ccc(NC(=O)CC4CCCC4)cc32)c(OC)c1
154 to 155	Cc1ccc(SN=C2C(=O)N3C(C(=O)OC(c4ccccc4)c4ccccc4)=C(CSc4nnnn4C)CSC23)cc1 (centres undefined)
122 to 125	CN1CCCc2cc(CC3SC(=O)NC3=O)ccc21 (centres undefined)
91 to 93	O=C(O)Cc1cccc(Oc2ccccc2O)c1O
260 to 262	O=C(Nc1c[nH]nc1C(=O)NCCNc1ccccn1)c1ccccn1
50 to 54	NCCCn1c(-c2ccc(-c3ccccc3)cc2)csc1=Nc1ccccc1
180	CC(C)NC(COc1ccccc1C(=O)Nc1cccc2[nH]ccc12)NC(C)C
160 to 161	Cc1ccc2c(c1)C(C(=O)Nc1c(C)cccc1Cl)c1ccccc1CO2 (centres undefined)
200 to 201	CCOc1c(C#N)cnc2c(NC(=O)c3c(Cl)cccc3Cl)cccc12
212 to 215	COc1cccc2c1C[C@H]1C[C@@H](CCN3CCC(O)(c4ccc(Cl)cc4)CC3)CN(C)[C@@H]1C2
181	CC(C)(C)OC(=O)Nc1cc(OCC2COC(=O)O2)c(C#Cc2ccccc2)cc1NC(=O)CC(=O)c1cccc(C#N)c1 (racemic)
196 to 198	CN(C)C=C1C[N+]([O-])=C(c2ccccc2Cl)c2cc(Cl)ccc2C1=O
178 to 180	Cc1ccc(-c2ccc(C(=O)Nc3ccc4cc(CN5CCCC5)cnc4c3C)cn2)cc1
